41 compounds from patent US8822468B2 (Novartis AG, priority 2008, dated 2014) can be followed below.

pIC50: −log10 of the molar value.

The target of the assay is T1, cMET receptor tyrosine kinase (GST-cMET (969-1390)) (Homo sapiens, UniProt P08581).
T1 construct: made in house
T1 sequence (P08581 969-1390): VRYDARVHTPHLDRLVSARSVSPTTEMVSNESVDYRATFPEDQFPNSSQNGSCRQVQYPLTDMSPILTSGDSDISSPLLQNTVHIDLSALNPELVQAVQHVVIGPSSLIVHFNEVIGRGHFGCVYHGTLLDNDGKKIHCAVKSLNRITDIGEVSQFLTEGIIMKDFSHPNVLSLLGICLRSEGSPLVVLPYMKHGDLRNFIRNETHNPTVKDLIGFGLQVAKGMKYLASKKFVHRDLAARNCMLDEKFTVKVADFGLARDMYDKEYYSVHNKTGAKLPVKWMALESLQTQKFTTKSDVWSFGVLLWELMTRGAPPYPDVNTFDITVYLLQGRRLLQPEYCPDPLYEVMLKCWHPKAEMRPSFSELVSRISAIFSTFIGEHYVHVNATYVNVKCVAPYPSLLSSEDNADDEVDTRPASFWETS
The experiment in a line: EPK cMET profiling assay (LanthaScreen TR-FRET antibody based kinase phosphorylation assay). Format: biochemical. The following applies: purified recombinant GST-cMET (969-1390), 2 μM ATP, 50 nM Fluorescein-PolyEAY, 60 minutes at room temperature; read-out: c-Met IC50. Summed up:
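GST-cMET cytoplasmic domain (969-1390), 0.3 nM, phosphorylated 50 nM fluorescein-PolyEAY with 2 µM ATP, Mg2+/Mn2+, 0.6% DMSO, 60 min at room temperature. Stopped with EDTA; Tb-PY20 antibody TR-FRET single end-point read. Final compound concentrations 10 to 0.003 µM, 8 points.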
Background: Time-resolved FRET reads energy transfer from a long-lived donor to a nearby acceptor.
On to `Clc1cccc(-c2ccc3ncc(Cc4ccc5ncccc5c4)n3n2)c1` [Example 53, 6-[6-(3-Chloro-phenyl)-imidazo[1,2-b]pyridazin-3-ylmethyl]-quinoline], for which the pIC50 was 6.96.

Turning to `c1cnc2ccc(Cc3cnc4ccc(-c5cncnc5)nn34)cc2c1` [Example 54, 6-(6-Pyrimidin-5-yl-imidazo[1,2-b]pyridazin-3-ylmethyl)-quinoline], the pIC50 was 6.92.

On to `CC(=O)c1cccc(-c2ccc3ncc(Cc4ccc5ncccc5c4)n3n2)c1` [Example 55, 1-[3-(3-Quinolin-6-ylmethyl-imidazo[1,2-b]pyridazin-6-yl)-phenyl]-ethanone], for which the pIC50 was 7.51.

Turning to `COc1ncc(-c2ccc3ncc(Cc4ccc5ncccc5c4)n3n2)cn1` [Example 56, 6-[6-(2-Methoxy-pyrimidin-5-yl)-imidazo[1,2-b]pyridazin-3-ylmethyl]-quinoline], the pIC50 was 6.60.

Take `NC(=O)c1cccc(-c2ccc3ncc(Cc4ccc5ncccc5c4)n3n2)c1` [Example 57, 3-(3-Quinolin-6-ylmethyl-imidazo[1,2-b]pyridazin-6-yl)-benzamide]: the pIC50 is 7.20.

For `CNC(=O)c1cccc(-c2ccc3ncc(Cc4ccc5ncccc5c4)n3n2)c1` [Example 58, N-Methyl-3-(3-quinolin-6-ylmethyl-imidazo[1,2-b]pyridazin-6-yl)-benzamide], the pIC50 was 6.60.

As for `CN(C)C(=O)c1cccc(-c2ccc3ncc(Cc4ccc5ncccc5c4)n3n2)c1` [Example 59, N,N-Dimethyl-3-(3-quinolin-6-6-ylmethyl-imidazo[1,2-b]pyridazin-6-yl)-benzamide], the pIC50 was 6.25.

For `CCOC(=O)c1cccc(-c2ccc3ncc(Cc4ccc5ncccc5c4)n3n2)c1` [Example 60, 3-(3-Quinolin-6-ylmethyl-imidazo[1,2-b]pyridazin-6-yl)-benzoic acid ethyl ester], the pIC50 was 6.47.

For `COc1ccc(-c2ccc3ncc(Cc4ccc5ncccc5c4)n3n2)cn1` [Example 62, 6-[6-(6-Methoxy-pyridin-3-yl)-imidazo[1,2-b]pyridazin-3-ylmethyl]-quinoline], the pIC50 was 7.41.

For the compound `c1cnc2ccc(Cc3cnc4ccc(-c5ccc6c(c5)CCO6)nn34)cc2c1` [Example 63, 6-[6-(2,3-Dihydro-benzofuran-5-yl)-imidazo[1,2-b]pyridazin-3-ylmethyl]-quinoline], the pIC50 is 6.72.

With `OCCCc1ccc(-c2ccc3ncc(Cc4ccc5ncccc5c4)n3n2)cc1` [Example 64, 3-[4-(3-Quinolin-6-ylmethyl-imidazo[1,2-b]pyridazin-6-yl)-phenyl]-propan-1-ol], the pIC50 is 7.10.

For `c1cnc2ccc(Cc3cnc4ccc(-c5ccsc5)nn34)cc2c1` [Example 65, 6-(6-Thiophen-3-yl-imidazo[1,2-b]pyridazin-3-ylmethyl)-quinoline], the pIC50 was 6.80.

In the case of `CN(C)CCNC(=O)c1cccc(-c2ccc3ncc(Cc4ccc5ncccc5c4)n3n2)c1` [Example 66, N-(2-Dimethylamino-ethyl)-3-(3-quinolin-6-ylmethyl-imidazo[1,2-b]pyridazin-6-yl)-benzamide], the pIC50 is 7.22.

As to `N#Cc1cc(-c2ccc3ncc(Cc4ccc5ncccc5c4)n3n2)ccc1F` [Example 67, 2-Fluoro-5-(3-quinolin-6-ylmethyl-imidazo[1,2-b]pyridazin-6-yl)-benzonitrile], the negative logarithm of the IC50 (pIC50) was 6.80.

As for `Fc1ccc(-c2ccc3ncc(Cc4ccc5ncccc5c4)n3n2)cc1Cl` [Example 68, 6-[6-(3-Chloro-4-fluoro-phenyl)-imidazo[1,2-b]pyridazin-3-ylmethyl]-quinoline], the negative logarithm of the IC50 (pIC50) is 6.32.

Turning to `c1cnc2ccc(Cc3cnc4ccc(-c5ccn[nH]5)nn34)cc2c1` [Example 69, 6-[6-(2H-Pyrazol-3-yl)-imidazo[1,2-b]pyridazin-3-ylmethyl]-quinoline], the pIC50 was 6.09.

With `CNC(=O)c1ccc(-c2ccc3ncc(Cc4ccc5ncccc5c4)n3n2)cc1F` [Example 70, 2-Fluoro-N-methyl-4-(3-quinolin-6-ylmethyl-imidazo[1,2-b]pyridazin-6-yl)-benzamide], the pIC50 was 7.21.

As for `CNC(=O)c1ccc(-c2ccc3ncc(Cc4ccc5ncccc5c4)n3n2)cc1Cl` [Example 71, 2-Chloro-N-methyl-4-(3-quinolin-6-ylmethyl-imidazo[1,2-b]pyridazin-6-yl)-benzamide], the pIC50 was 7.62.

As for `Oc1ccc(-c2ccc3ncc(Cc4ccc5ncccc5c4)n3n2)cn1` [Example 73, 5-(3-Quinolin-6-ylmethyl-imidazo[1,2-b]pyridazin-6-yl)-pyridin-2-ol], the pIC50 is 7.32.

`Clc1ccc2ncc(Cc3ccc4nccn4c3)n2n1` [Example 74, 6-chloro-3-imidazo[1,2-a]pyridin-6-ylmethyl-imidazo[1,2-b]pyridazine]: the negative-log IC50 (pIC50) was 6.70.

As to `OCCNc1ccc2ncc(Cc3ccc4nccn4c3)n2n1` [Example 75, 2-(3-Imidazo[1,2-a]pyridin-6-ylmethyl-imidazo[1,2-b]pyridazin-6-ylamino)-ethanol], the pIC50 is 6.52.

`CN(C)[C@@H]1CCN(c2ccc3ncc(Cc4ccc5nccn5c4)n3n2)C1` [Example 76, [(R)-1-(3-Imidazo[1,2-a]pyridin-6-ylmethyl-imidazo[1,2-b]pyridazin-6-yl)-pyrrolidin-3-yl]-dimethyl-amine]: the pIC50 is 6.52.

`CCC(C)Nc1ccc2ncc(Cc3ccc4ncccc4c3)n2n1` (centres unmarked) [Example 78, sec-Butyl-(3-quinolin-6-ylmethyl-imidazo[1,2-b]pyridazin-6-yl)-amine]: the pIC50 is 8.05.

Turning to `CC(C)CNc1ccc2ncc(Cc3ccc4ncccc4c3)n2n1` [Example 79, Isobutyl-(3-quinolin-6-ylmethyl-imidazo[1,2-b]pyridazin-6-yl)-amine], the negative logarithm of the IC50 (pIC50) was 7.36.

For the compound `c1cnc2ccc(Cc3cnc4ccc(NCC5CCCO5)nn34)cc2c1` (centres unmarked) [Example 80, (3-Quinolin-6-ylmethyl-imidazo[1,2-b]pyridazin-6-yl)-(tetrahydro-furan-2-ylmethyl)-amine], the negative-log IC50 (pIC50) is 7.42.

As for `c1cnc2ccc(Cc3cnc4ccc(NC5CCCC5)nn34)cc2c1` [Example 81, Cyclopentyl-(3-quinolin-6-ylmethyl-imidazo[1,2-b]pyridazin-6-yl)-amine], the pIC50 is 7.12.

With `c1ccc(CNc2ccc3ncc(Cc4ccc5ncccc5c4)n3n2)cc1` [Example 82, Benzyl-(3-quinolin-6-ylmethyl-imidazo[1,2-b]pyridazin-6-yl)-amine], the pIC50 was 6.66.

Consider `CN1CCC(Nc2ccc3ncc(Cc4ccc5ncccc5c4)n3n2)CC1` [Example 83, (1-Methyl-piperidin-4-yl)-(3-quinolin-6-ylmethyl-imidazo[1,2-b]pyridazin-6-yl)-amine], for which the pIC50 was 6.94.

As to `c1cnc2ccc(Cc3cnc4ccc(N5CCOCC5)nn34)cc2c1` [Example 84, 6-(6-Morpholin-4-yl-imidazo[1,2-b]pyridazin-3-ylmethyl)-quinoline], the pIC50 was 7.31.

Consider `c1cnc2ccc(Cc3cnc4ccc(N5CCCC5)nn34)cc2c1` [Example 85, 6-(6-Pyrrolidin-1-yl-imidazo[1,2-b]pyridazin-3-ylmethyl)-quinoline], for which the pIC50 is 7.02.

Turning to `CN(C)C1CCN(c2ccc3ncc(Cc4ccc5ncccc5c4)n3n2)CC1` [Example 86, Dimethyl-[1-(3-quinolin-6-ylmethyl-imidazo[1,2-b]pyridazin-6-yl)-piperidin-4-yl]-amine], the pIC50 was 6.80.

Turning to `CN(C)[C@@H]1CCN(c2ccc3ncc(Cc4ccc5ncccc5c4)n3n2)C1` [Example 88, Dimethyl-[(R)-1-(3-quinolin-6-ylmethyl-imidazo[1,2-b]pyridazin-6-yl)-pyrrolidin-3-yl]-amine], the pIC50 is 7.92.

Turning to `COCCNc1ccc2ncc(Cc3ccc4ncccc4c3)n2n1` [Example 89, (2-Methoxy-ethyl)-(3-quinolin-6-ylmethyl-imidazo[1,2-b]pyridazin-6-yl)-amine], the negative-log IC50 (pIC50) was 7.59.

For the compound `CCC(CC)Nc1ccc2ncc(Cc3ccc4ncccc4c3)n2n1` [Example 90, (1-Ethyl-propyl)-(3-quinolin-6-ylmethyl-imidazo[1,2-b]pyridazin-6-yl)-amine], the pIC50 is 7.13.

Regarding `CC(C)Nc1ccc2ncc(Cc3ccc4ncccc4c3)n2n1` [Example 91, Isopropyl-(3-quinolin-6-ylmethyl-imidazo[1,2-b]pyridazin-6-yl)-amine], the pIC50 is 7.54.

As to `OCCNc1ccc2ncc(Cc3ccc4ncccc4c3)n2n1` [Example 92, 2-(3-Quinolin-6-ylmethyl-imidazo[1,2-b]pyridazin-6-ylamino)-ethanol], the pIC50 was 7.49.

On to `Cc1csc(Nc2ccc3ncc(Cc4ccc5ncccc5c4)n3n2)n1` [Example 93], for which the pIC50 is 6.41.

With `CC(=O)NCCNc1ccc2ncc(Cc3ccc4ncccc4c3)n2n1` [Example 96, N-[2-(3-Quinolin-6-ylmethyl-imidazo[1,2-b]pyridazin-6-ylamino)-ethyl]-acetamide], the pIC50 was 6.72.

As to `c1cnc2ccc(Cc3cnc4ccc(NC5CCCCCCC5)nn34)cc2c1` [Example 97, Cyclooctyl-(3-quinolin-6-ylmethyl-imidazo[1,2-b]pyridazin-6-yl)-amine], the pIC50 was 6.21.

Turning to `CCC(C)(C)Nc1ccc2ncc(Cc3ccc4ncccc4c3)n2n1` [Example 98, (1,1-Dimethyl-propyl)-(3-quinolin-6-ylmethyl-imidazo[1,2-b]pyridazin-6-yl)-amine], the pIC50 was 6.96.

`O=S1(=O)CCC(Nc2ccc3ncc(Cc4ccc5ncccc5c4)n3n2)C1` (centres unmarked) [Example 99, 1,1-Dioxo-tetrahydro-1lambda*6*-thiophen-3-yl)-(3-quinolin-6-ylmethyl-imidazo[1,2-b]pyridazin-6-yl)-amine]: the pIC50 is 6.92.

By pIC50 is commonly meant the IC50 on a negative log10 scale, so that one unit is a factor of ten.
